The values below come from article PMC7809749, “Tumor vasculature-targeted ^10B delivery by an Annexin A1-binding peptide boosts effects of boron neutron capture therapy” (BMC Cancer, 2021).

Series [1] concerns MBT2 bladder tumor-bearing C3H/He mice. Description: ^10B concentration in tumors and normal organs by prompt gamma-ray analysis. The series is classed as in vivo, mouse. As to conditions: for Intratumoral ^10B concentration: IF7 conjugates 7 mg/kg, fructose-^10BPA 0.791 mg/kg, ^10BSH 0.868 mg/kg, MBT2 tumor; for Intratumoral ^10B concentration / ^10B tumor/blood (T/B) ratio: mean ± SD; for ^10B tumor/blood (T/B) ratio: same doses; for Tumor/blood (T/B) ratio, range: by 40 min after injection (range over 5-40 min); for Intratumoral concentration reached: ultralow dose 7 mg/kg iv, MBT2 tumor-bearing mice, discussion summary. The procedure: MBT2 cells (1 × 10^6 cells per mouse) plus 50 μl Matrigel (Corning Inc., NY, USA) were injected subcutaneously using a 27-gauge needle into the right thighs of 8-week-old female C3H/He mice under anesthesia with 2% isoflurane inhalation. The day of injection was defined as day 0. At 4 weeks after MBT2 cells injection, when MBT2 tumors were palpable, mice were randomly divided into four groups of 16 mice each and injected intravenously with: 1) fructose-^10BPA ((0.791 mg/kg), 2) IF7C(^10BPA)RR (7 mg/kg), 3) ^10BSH 0.868 mg/kg), or 4) IF7K(^10BSH)RR (7 mg/kg). Within 5, 10, 20, and 40 min of injection, four mice at each time point were sacrificed by cervical dislocation under anesthesia with 2% isoflurane inhalation. From each mouse, the tumor, brain, lung, heart, liver, kidney, bladder, stomach, intestine, spleen, skin, muscles, and blood were collected in a Teflon tube for ^10B measurement. ^10B concentrations in tissues were measured by prompt gamma-ray spectrometry using a thermal neutron guide tube installed at the Institute for Integrated Radiation and Nuclear Science, Kyoto University (KURNS).

The subject of series [2] is murine MBT2 bladder tumor. The experiment in a line: Nuclear reactor-based BNCT of MBT2 bladder tumor-bearing mice. Conditions: compound-mediated BNCT: 10 mg/kg iv 40 min before neutron irradiation (60 min, 1 MW); MBT2, n = 3; mean ± SD. The series is classed as in vivo, mouse. The procedure: MBT2 cells were injected as described above into the right thighs of 8-week-old female C3H/He mice, and the day of injection defined as day 0. Four weeks later, when MBT2 tumors were palpable, mice were randomly divided into six groups of 3 mice each: 1) untreated control, 2) IF7C(^10BPA)RR, 3) IF7K(^10BSH)RR, 4) neutron-irradiated controls, 5) IF7C(^10BPA)RR-mediated BNCT, and 6) IF7K(^10BSH)RR-mediated BNCT. In Groups 4, 5, and 6, tumors in right thighs were subjected to neutron beam irradiation at the heavy water facility of KURNS Research Reactor for 60 min at a power of 1 MW. Each mouse was held within an acrylic holder during neutron irradiation, and a LiF plate (50 mm thick) was used to shield the body from thermal neutrons, while exposing the tumor. Neutron fluences were measured by radioactivation of gold foils (3 mm diameter; 0.05 mm thick) on surface of both sides of the tumors. Since thermal neutrons were rapidly attenuated in the tumor, the average thermal neutron fluences of both sides were adopted as the fluence irradiated to the tumors. In this study, tumors were irradiated by 1.9 × 10^12 thermal neutrons/cm^2. Thermoluminescent dosimeters for γ-ray dosimetry were attached to tumor surfaces. […] Tumor size was measured using calipers, and tumor volume (V) was calculated as: V = ab^2/2, where a and b are the major and minor axes, respectively. […]

For series [3], the system named is human YTS-1 bladder tumor xenograft. Description: Cyclotron accelerator-based BNCT of human YTS-1 xenograft mice. The series is classed as in vivo. As to conditions: mean ± SD; for Tumor volume at 4 weeks after start of first BNCT: compound injection without neutron irradiation, YTS-1 xenograft, nude mice, n = 8; for Tumor volume at 4 weeks: compound-mediated BNCT, 20 mg/kg iv 40 min before irradiation, two treatments one week apart, YTS-1, n = 8. The procedure: YTS-1 cells (2 × 10^6 cells per mouse) plus 50 μl Matrigel (Corning Inc.) were injected subcutaneously using a 27-gauge needle into the right thighs of 8-week-old female BALB/c nu/nu mice under anesthesia with 2% isoflurane inhalation. The day of injection was defined as day 0. One week later, when YTS-1 xenografts were palpable, mice were randomly divided into six groups of 8 mice each: 1) untreated control, 2) […], 4) neutron-irradiated controls, 5) IF7C(^10BPA)RR-mediated BNCT, and 6) IF7K(^10BSH)RR-mediated BNCT. In Groups 4, 5, and 6, tumors in thighs were subjected to neutron beam irradiation at the cyclotron-typed accelerator (Sumitomo Heavy Industries Ltd.) in the Aomori Prefecture Quantum Science Center for 60 min at a power of […] at 20 MeV. Radiation of mice was performed as described above. The average of the γ-ray dose was 0.23 Gy. Groups 5 and 6, IF7C(^10BPA)RR or IF7K(^10BSH)RR was administered intravenously 40 min before irradiation at a dose of 20 mg/kg. One week after the first BNCT, the second was administered using both the same method and irradiation method. The tumor size and volume was calculated as above. Four weeks after the first BNCT, all mice were sacrificed by cervical dislocation under anesthesia with 2% isoflurane inhalation, and tumors were weighed and prepared for immunohistochemical analysis.

Series [4] has as its system human YTS-1 xenograft tumors. Description: Immunohistochemistry of YTS-1 xenografts (HE, CD8α, CD31, Ki-67, Anxa1). The class given is in vivo. As to conditions: 3 weeks after second BNCT; for Number of CD8-positive lymphocytes per tumor area / Ki-67 proliferation index: mean ± SD; for Anxa 1 expression vs untreated, compound-only and neutron-irradiated controls: IHC. The procedure:
BNCT-treated YTS-1 tumors were collected as described above, fixed in 20% formalin solution and embedded in paraffin. Tissue sections 4 μm thick were mounted on silane-coated glass slides and air-dried for 1 h. Deparaffinized tissue sections underwent heat-induced epitope retrieval using a Histofine antigen retrieval reagent (pH 6.0) (Nichirei Biosciences Inc. Tokyo, Japan) and were then incubated with anti-human Ki-67 antigen (clone MIB-1, 1:2000 dilution) or mouse anti-Anxa1 monoclonal antibody (clone MC16, 1:100 dilution) in phosphate-buffered saline (PBS) containing 5% bovine serum albumin (BSA) at 4 °C overnight. Other sections were treated with heat-induced epitope retrieval with Histofine antigen retrieval reagent (pH 9.0) (Nichirei Biosciences Inc.) and then incubated with rabbit anti-mouse CD8α (antibody (EPR21769, 1:2000 dilution) or anti-mouse CD31 (EPR17259, 1:2000 dilution) in PBS containing 5% BSA at 4 °C overnight. The Envision/HRP rabbit mouse kit was used for antibody detection (Agilent Technologies Japan., Tokyo, Japan). Nuclear counterstaining was performed by incubating sections with hematoxylin solution (Agilent Technologies Japan) for 2 min at room temperature. Eosin alcohol solution (Fujifilm Wako Pure Chemical Corporation) was used to perform HE staining, according to the manufacturer’s instruction. Images (10× objective) were captured using a Keyence BZ-9000 fluorescence microscope (Keyence, Tokyo, Japan) and BZ-II analyzer Ver 2.2 (Keyence). The white balance was adjusted for each specimen.
Six complete and non-overlapping tumor regions of interest (ROI) were selected from each case and saved as .tif files. The number of diaminobenzidine (DAB)-stained nuclei was determined in the ROI using color deconvolution and the particle analysis plug-in of the Fiji platform (ImageJ distribution, http://fiji.sc/Fiji). The mean number of CD8-positive lymphocytes in all six fields was used for statistical analysis. The number of diaminobenzidine (DAB)-stained blood vessels was counted in a ROI using the color deconvolution plug-in of the Fiji platform (ImageJ distribution, http://fiji.sc/Fiji). The mean number of CD31-positive blood vessels in all six fields was used for statistical analysis.
As above, six complete and non-overlapping tumor regions of interest (ROI) were selected and saved as .tif files, and diaminobenzidine (DAB)- and hematoxylin-stained nuclei were counted. Ki-67-positive nuclei were included in the count, regardless of staining intensity, in line with recommendations of the International Ki-67 in Breast Cancer Working Group. The number of DAB-stained nuclei was divided by the sum of DAB- and hematoxylin-stained nuclei, and values were expressed as a percentage. The mean percentage of Ki-67-positive cells in all six field was used for statistical analysis.

For series [5], the system named is tumor. Conditions: after intravenous injection; cited from earlier work.
For series [6] the following is noted: cited from earlier work. As to the method: To facilitate esterase-aided ^10BPA release following delivery to a tumor, we conjugated IF7C to ^10BPA via an ester bond with a propanolamine linker. Following analysis of 584 mg of IF7C(^10BPA)RR, we determined its purity to be 99.5% (Fig. S1A). By contrast, to design a conjugate to be internalized by tumor cells, we conjugated IF7K to ^10BSH directly through an uncleavable linker, N-(6-maleimidocaproyloxy) sulfosuccinimide (Sulfo-EMCS). We synthesized a total of 411 mg IF7K(^10BSH)RR, and determined its purity to be 98.8% (Fig. S1B).

Setting [7] is: compound injection without neutron irradiation.

Regarding “IFLLWQRK(EMCS-^10BSH)RR [IF7K(^10BSH)RR]”, in series [1] (5 min after iv injection), the “Intratumoral ^10B concentration” value is listed as 17.8 ± 11.1 ppm and the “^10B tumor/blood (T/B) ratio” value is 7.61 ± 8.81. Also, in series [1] (10 min after iv injection), the “Intratumoral ^10B concentration” value amounted to 27.0 ± 15.3 ppm and the “^10B tumor/blood (T/B) ratio” value is reported as 10.92 ± 9.89. Moreover, in series [1] (20 min after iv injection), the “Intratumoral ^10B concentration” value is given as 16.2 ± 16.3 ppm and the “^10B tumor/blood (T/B) ratio” value came out at 5.89 ± 3.57. Further, in series [1] (40 min after iv injection), the “Intratumoral ^10B concentration” value is recorded as 15.4 ± 11.2 ppm and the “^10B tumor/blood (T/B) ratio” value turned out to be 6.28 ± 7.45. For the same substance, in series [1], the “Tumor/blood (T/B) ratio, range” value was 5.89–10.92 and the Intratumoral concentration reached is given as 25 ppm. Besides, the “Tumor volume 3 weeks after BNCT” value in series [2] is listed as 3111 ± 1769 mm^3. Besides, in series [3], the “Tumor volume at 4 weeks after start of first BNCT” value came out at 1511 ± 921 mm^3 and the “Tumor volume at 4 weeks” value is on record as 69 ± 79 mm^3. Also, in series [4] (setting [7]), the “Number of CD8-positive lymphocytes per tumor area” value (“Number … per tumor area” below) was 860 ± 262 n/mm^2. Moreover, in series [4] (compound-mediated BNCT), the “Histology (HE and CD8α staining)” value is recorded as “tissue necrosis with infiltration of CD8α-positive lymphocytes”; the “Anxa 1 expression vs untreated, compound-only and neutron-irradiated controls” value is recorded as “significantly higher”; the Ki-67 proliferation index is recorded as 9.73 ± 8.39%; the “Number … per tumor area” value is 4498 ± 890 n/mm^2.
As for “borocaptate sodium [^10BSH, reference compound]”, the “Intratumoral ^10B concentration” value in series [1] (5 min after iv injection) amounted to 1.6 ± 1.4 ppm; in series [1] (10 min after iv injection), 7.5 ± 8.7 ppm; in series [1] (20 min after iv injection), 17.1 ± 12.8 ppm; in series [1] (40 min after iv injection), 1.7 ± 0.3 ppm. The “^10B tumor/blood (T/B) ratio” value worked out at 0.41 ± 0.72 in series [1] (5 min after iv injection), 2.46 ± 2.28 in series [1] (10 min after iv injection), 8.72 ± 4.98 in series [1] (20 min after iv injection) and 1.71 ± 1.14 in series [1] (40 min after iv injection). Further, in series [1], the “Tumor/blood (T/B) ratio, range” value was 0.41–8.72.
For “p-Boronophenylalanine [^10BPA, reference compound]”, the “Intratumoral ^10B concentration” value came out at 2.5 ± 4.4 ppm in series [1] (5 min after iv injection), 2.6 ± 3.1 ppm in series [1] (10 min after iv injection), 0.0 ± 0.0 ppm in series [1] (20 min after iv injection) and 5.4 ± 5.0 ppm in series [1] (40 min after iv injection). For the same substance, the “^10B tumor/blood (T/B) ratio” value in series [1] (5 min after iv injection) is listed as 0.77 ± 1.33; in series [1] (10 min after iv injection), 0.87 ± 0.88; in series [1] (20 min after iv injection), 0.0 ± 0.0; in series [1] (40 min after iv injection), 3.16 ± 3.35. The “Tumor/blood (T/B) ratio, range” value in series [1] is recorded as 0.00–3.16.
Turning to “IFLLWQRC(EMCS-^10BPA)RR [IF7C(^10BPA)RR]”, in series [1] (5 min after iv injection), the “Intratumoral ^10B concentration” value is on record as 9.3 ± 6.9 ppm and the “^10B tumor/blood (T/B) ratio” value worked out at 3.48 ± 3.49. Moreover, in series [1] (10 min after iv injection), the “Intratumoral ^10B concentration” value was found to be 4.6 ± 0.8 ppm and the “^10B tumor/blood (T/B) ratio” value came out at 2.41 ± 0.27. Also, in series [1] (20 min after iv injection), the “Intratumoral ^10B concentration” value worked out at 19.9 ± 20.4 ppm and the “^10B tumor/blood (T/B) ratio” value is on record as 13.54 ± 19.68. Also, in series [1] (40 min after iv injection), the “Intratumoral ^10B concentration” value was 4.7 ± 0.5 ppm and the “^10B tumor/blood (T/B) ratio” value was found to be 2.15 ± 0.50. Moreover, in series [1], the “Tumor/blood (T/B) ratio, range” value is on record as 2.15–13.54 and the Intratumoral concentration reached was 20 ppm. Also, the “Tumor volume 3 weeks after BNCT” value in series [2] was 2.90 ± 0.49 mm^3. For the same substance, in series [3], the “Tumor volume at 4 weeks after start of first BNCT” value worked out at 965 ± 844 mm^3 and the “Tumor volume at 4 weeks” value worked out at 123 ± 114 mm^3. The “Number … per tumor area” value in series [4] (setting [7]) was determined as 709 ± 328 n/mm^2. For the same substance, in series [4] (compound-mediated BNCT), the “Histology (HE and CD8α staining)” value is reported as “tissue necrosis with infiltration of CD8α-positive lymphocytes”; the “Anxa 1 expression vs untreated, compound-only and neutron-irradiated controls” value is recorded as “significantly higher”; the Ki-67 proliferation index was found to be 10.82 ± 6.31%; the “Number … per tumor area” value is listed as 4351 ± 1318 n/mm^2.
Regarding IFLLWQR [IF7], in series [5], the “Time for IF7 to target a tumor” value is on record as 9 min. The “Solubility in aqueous solution” value in series [6] was “poorly soluble”.
